Tests used:
MTAN-D198N = MTAN-D198N (Helicobacter pylori, UniProt Q9ZMY2, D198N); settings: for affinity to MTAN-D198N / displacement of AdoHcy-TAMRA: displacement curves, FIG. 10B
[1] = system: N[C@@H](Cc1c[nH]cn1)C(=O)O; assay: purified protein, by the assay type; settings: pH 8.0; 25.0 °C
[2] = molecular target: Mycobacterium smegmatis EgtD (Mycolicibacterium smegmatis, UniProt A0R5M8); settings: isothermal calorimetry, previously determined; cited from earlier work
[3] = molecular target: T1, calf intestinal alkaline phosphatase (CIAP) (Bos taurus, UniProt P19111); settings: read-out: Km of ATP for CIAP; competitive FP assay, 0.25 U/mL CIAP
T1 sequence (P19111 20-506): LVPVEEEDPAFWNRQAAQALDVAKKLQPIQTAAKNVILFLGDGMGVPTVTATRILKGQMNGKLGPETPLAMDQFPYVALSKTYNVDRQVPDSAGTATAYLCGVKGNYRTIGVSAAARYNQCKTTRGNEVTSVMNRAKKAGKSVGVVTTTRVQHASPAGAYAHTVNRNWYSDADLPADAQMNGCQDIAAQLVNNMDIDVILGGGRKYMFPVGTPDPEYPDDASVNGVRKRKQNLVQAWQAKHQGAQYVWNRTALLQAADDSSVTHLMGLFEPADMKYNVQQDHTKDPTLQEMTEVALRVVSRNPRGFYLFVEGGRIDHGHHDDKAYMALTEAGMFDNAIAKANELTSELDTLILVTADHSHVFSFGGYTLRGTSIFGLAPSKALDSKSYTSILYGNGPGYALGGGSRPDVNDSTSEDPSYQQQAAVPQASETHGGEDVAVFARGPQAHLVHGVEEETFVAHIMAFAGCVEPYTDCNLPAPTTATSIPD
Protocol: (§1) Calf Intestinal Alkaline Phosphatase (CIAP) was obtained from New England Biolabs. […] Reactions were initiated by adding ATP at varying concentrations ranging from 0.1 to 20 μM. Due to the ability of ATP to act as an inhibitor of CIAP at high concentrations, steady-state analysis of the resulting data was fitted to a substrate-inhibition equation in Equation 8, below, using Prism 7.

[4] = molecular target: T1, calf intestinal alkaline phosphatase (CIAP); assay: biochemical
Protocol: as §1

CIAP = CIAP (Bos taurus, UniProt P19111); settings: molybdenum blue-based assay, previous work, cited from earlier work
CIAP, sequence (P19111 20-506): as above

HpMTAN = HpMTAN (Helicobacter pylori, UniProt Q9ZMY2); settings: previously characterized; cited from earlier work
HpMTAN, sequence (Q9ZMY2 whole entry): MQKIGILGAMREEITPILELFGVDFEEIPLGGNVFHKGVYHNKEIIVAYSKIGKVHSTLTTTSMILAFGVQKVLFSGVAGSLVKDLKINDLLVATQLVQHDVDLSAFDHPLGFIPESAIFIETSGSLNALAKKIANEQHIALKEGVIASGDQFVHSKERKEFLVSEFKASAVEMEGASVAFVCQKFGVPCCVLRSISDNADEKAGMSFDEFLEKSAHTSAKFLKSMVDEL

MTAN-D198N, sequence (Q9ZMY2 whole entry D198N): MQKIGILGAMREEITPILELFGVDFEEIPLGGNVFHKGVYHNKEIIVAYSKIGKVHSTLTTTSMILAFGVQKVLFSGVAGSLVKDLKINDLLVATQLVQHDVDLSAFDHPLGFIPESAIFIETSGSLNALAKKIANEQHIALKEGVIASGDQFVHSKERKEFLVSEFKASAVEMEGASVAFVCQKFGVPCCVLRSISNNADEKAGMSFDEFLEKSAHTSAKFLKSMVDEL
Mycobacterium smegmatis EgtD, sequence (A0R5M8 whole entry): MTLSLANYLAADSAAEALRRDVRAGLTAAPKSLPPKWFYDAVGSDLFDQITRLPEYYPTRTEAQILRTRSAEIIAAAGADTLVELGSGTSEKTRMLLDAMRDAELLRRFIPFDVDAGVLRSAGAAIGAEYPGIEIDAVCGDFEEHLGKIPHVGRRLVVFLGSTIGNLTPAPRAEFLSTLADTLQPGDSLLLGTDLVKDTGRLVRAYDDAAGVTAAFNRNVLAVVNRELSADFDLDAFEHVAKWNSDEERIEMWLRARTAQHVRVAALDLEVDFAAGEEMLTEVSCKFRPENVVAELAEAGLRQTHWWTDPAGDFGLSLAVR

With `Nc1ncnc2c1ncn2[C@@H]1O[C@H](COP(=O)(O)OP(=O)(O)O)[C@@H](O)[C@H]1O` [ADP, adenosine diphosphate] the “affinity to MTAN-D198N / displacement of AdoHcy-TAMRA” value (“affinity to MTAN-D198N / displacement” below) (MTAN-D198N) was “M affinity”.

With “EgtD (Mycobacterium tuberculosis CDC1551)” the Km [1] was 330 ± 35 µM.

In the case of `N[C@@H](Cc1c[nH]cn1)C(=O)O` [L-histidine], the Kd [2] is given as 290 ± 14 µM.

For `Nc1ncnc2c1ncn2[C@@H]1O[C@H](COP(=O)(O)OP(=O)(O)OP(=O)(O)O)[C@@H](O)[C@H]1O` [ATP, adenosine triphosphate], the “affinity to MTAN-D198N / displacement” value (MTAN-D198N) was “unable to displace AdoHcy-TAMRA”, the Km [3] was 0.9 ± 0.2 µM and the Ki [4] was 7.6 ± 1.8 µM. For the same compound, the Ki (CIAP; read-out: Ki for substrate inhibition of ATP (CIAP)) was 19 µM and the Km (CIAP; read-out: Km of ATP for CIAP) was 20.5 µM.

In the case of `Nc1ncnc2c1ncn2[C@@H]1O[C@H](COP(=O)(O)O)[C@@H](O)[C@H]1O` [AMP, adenosine monophosphate], the “affinity to MTAN-D198N / displacement” value (MTAN-D198N) is reported as “M affinity”.

In the case of `Nc1ncnc2c1ncn2[C@@H]1O[C@H](CSCC[C@H](N)C(=O)O)[C@@H](O)[C@H]1O` [AdoHcy, S-adenosylhomocysteine], the “limit of detection, amount” value (MTAN-D198N; 50 μL reactions) is given as “about 0.3 pmol” and the “affinity with HpMTAN” value (HpMTAN) is given as “low p M affinity”.

For `C[S+](CC[C@H](N)C(=O)O)C[C@H]1O[C@@H](n2cnc3c(N)ncnc32)[C@H](O)[C@@H]1O` (stereo partly drawn) [AdoMet, S-adenosyl methionine], the Kd [2] is listed as 270 ± 20 µM.
